Bounds are passed on as bounds.

The assay concerns the target HIV-1 protease (Human immunodeficiency virus type 1 group M subtype B, UniProt P04585). The assay can be described thus: Inhibition constants against HIV-1 protease (method of Pennington et al.). Type of assay: biochemical. The following applies: HIV-1 protease; read-out: Ki value. From the text:
We measured the inhibition constants of the compounds listed in Table VII against HIV-1 protease using the above-cited method of Pennington et al.
Broadly, the Ki is the equilibrium dissociation constant of an inhibitor or competing ligand from its target. As for `C=C(COC)COC(=O)N[C@@H](Cc1ccccc1)[C@H](O)CN(CC(C)C)S(=O)(=O)c1ccc(NC(C)=O)cc1` [Compound 155, N-4-((2-(syn)-Hydroxy-3-((2-methoxymethyl-allyloxycarbonylamino)-4-(S)-phenyl-butyl)-isobutyl-sulfamoyl)-phenyl)-acetamide], the Ki stood at 1.7 nM.
In the case of `C=CCOC(=O)N[C@@H](Cc1ccccc1)[C@H](O)CN(CC1CCCC1)S(=O)(=O)c1ccc2c(c1)CCN2C(C)=O` [Compound 156], the Ki is 2.8 nM.
As for `COc1ccc(S(=O)(=O)N(CC2CCCCC2)C[C@@H](O)[C@H](Cc2ccccc2)NC(=O)O[C@H]2CCOC2)cc1` [Compound 158, N-Cyclohexylmethyl-N-((2 syn,3S)-2-hydroxy-4-phenyl-3-((S)-tetrahydrofuran-3-yloxycarbonylamino)-butyl)-4-methoxy-benzenesulfonamide], the Ki is less than 0.1 nM.
Regarding `O=C(N[C@@H](Cc1ccccc1)[C@H](O)CN(CC1CCCCC1)S(=O)(=O)c1ccc(F)cc1)O[C@H]1CCOC1` [Compound 159, N-Cyclohexylmethyl-4-fluoro-N-((2 syn,3S)-2-hydroxy-4-phenyl-3-((S)-tetrahydrofuran-3-yloxycarbonylamino)-butyl)-benzenesulfonamide], the Ki stood at 0.2 nM.
The figure for `CC(=O)Nc1ccc(S(=O)(=O)N(CC2CCCCC2)C[C@@H](O)[C@H](Cc2ccccc2)NC(=O)O[C@H]2CCOC2)cc1` [Compound 160, N-(4-(Cyclohexylmethyl)-((2 syn,3S)-2-hydroxy-4-phenyl-3-((S)-tetrahydrofuran-3-yloxycarbonylamino)-butyl)-sulfamoyl-phenyl)-acetamide] is 1 nM; for `CC(C)CN(C[C@@H](O)[C@H](Cc1ccccc1)NC(=O)O[C@H]1CCOC1)S(=O)(=O)N1CCOCC1` [Compound 161] it is 20 nM; for `C=C(COC)COC(=O)N[C@@H](Cc1ccccc1)[C@H](O)CN(CC1CCCC1)S(=O)(=O)c1ccc(OC)cc1` [Compound 162] it is 0.5 nM.
With `COc1ccc(S(=O)(=O)N(CC(C)C)C[C@@H](O)[C@H](Cc2ccccc2)NC(=O)OCc2ccncc2)cc1` [Compound 163, N-((2 syn,3S)-2-Hydroxy-4-phenyl-3-(pyridin-4-yl-methoxycarbonylamino)-butyl)-N-isobutyl-4-methoxy-benzenesulfonamide], the Ki turned out to be 0.5 nM.
For `CC(=O)Nc1ccc(S(=O)(=O)N(CC(C)C)C[C@@H](O)[C@H](Cc2ccccc2)NC(=O)OCCc2ccccc2)cc1` [Compound 164], the Ki amounted to 130 nM.
With `Cc1ccc(S(=O)(=O)N(CC(C)C)C[C@@H](O)[C@H](Cc2ccccc2)NC(=O)O[C@H]2CCOC2)cc1` [Compound 165, N-((2 syn,3S)-2-Hydroxy-4-phenyl-3-((syn)-tetrahydrofuran-3-yloxycarbonylamino)-butyl)-N-isobutyl-4-methyl-benzenesulfonamide], the Ki is 0.4 nM.
On to `O=C(N[C@@H](Cc1ccccc1)[C@H](O)CN(CC1CCCC1)S(=O)(=O)c1ccc(O)cc1)OCc1cccnc1` [Compound 166, N-cyclopentylmethyl-4-hydroxy-N-((2 syn,3S)-2-hydroxy-4-phenyl-3-(pyridin-3-yl-methoxycarbonylamino)-butyl)-benzenesulfonamide], for which the Ki is less than 0.1 nM.
Turning to `CC(C)CN(C[C@@H](O)[C@H](Cc1ccccc1)NC(=O)O[C@H]1CCOC1)S(=O)(=O)c1ccc([N+](=O)[O-])cc1` [Compound 167, N-((2 syn,3S)-2-Hydroxy-4-phenyl-3-((S)-tetrahydrofuran-3-yloxycarbonylamino)-butyl)-N-isobutyl-4-nitro-benzenesulfonamide], the Ki is 0.45 nM.
In the case of `O=C(N[C@@H](Cc1ccccc1)[C@H](O)CN(CC1CCCC1)S(=O)(=O)c1ccc(O)cc1)O[C@H]1CCOC1` [Compound 169, N-Cyclopentylmethyl-4-hydroxy-N-((2 syn,3S)-2-hydroxy-4-phenyl-3-((S)-tetrahydrofuran-3-yloxycarbonylamino)-butyl)-benzenesulfonamide], the Ki was less than 0.1 nM.
With `O=C(N[C@@H](Cc1ccccc1)[C@H](O)CN(CC1CCCC1)S(=O)(=O)c1ccc([N+](=O)[O-])cc1)O[C@H]1CCOC1` [Compound 170, N-Cyclopentylmethyl-N-((2 syn,3S)-2-hydroxy-4-phenyl-3-((S)-tetrahydrofuran-3-yloxycarbonylamino)-butyl)-4-nitro-benzensulfonamide], the Ki was determined as 0.2 nM.
`Nc1ccc(S(=O)(=O)N(CC2CCCC2)C[C@@H](O)[C@H](Cc2ccccc2)NC(=O)O[C@H]2CCOC2)cc1` [Compound 171, 4-Amino-N-cyclopentylmethyl-N-((2 syn,3S)-2-hydroxy-4-phenyl-3-((S)-tetrahydrofuran-3-yloxycarbonylamino)-butyl)-benzenesulfonamide]: the Ki amounted to 0.2 nM.
As for `O=C(N[C@@H](Cc1ccccc1)[C@H](O)CN(CC1CCCC1)S(=O)(=O)c1ccc([N+](=O)[O-])cc1[N+](=O)[O-])O[C@H]1CCOC1` [Compound 172], the figure is 21 nM; as for `Nc1ccc(S(=O)(=O)N(CC2CCCC2)C[C@@H](O)[C@H](Cc2ccccc2)NC(=O)O[C@H]2CCOC2)c(N)c1` [Compound 173, 2,4-Diamino-N-cyclopentylmethyl-N-((2 syn,3S)-2-hydroxy-4-phenyl-3-((S)-tetrahydrofuran-3-yloxycarbonylamino)-butyl)-benzenesulfonamide], 0.6 nM.
On to `CC(C)CN(C[C@@H](O)[C@H](Cc1ccccc1)NC(=O)O[C@H]1CCOC1)S(=O)(=O)c1ccc(OCc2ccccc2)cc1` [Compound 174], for which the inhibition constant Ki worked out at 10 nM.
With `CC(C)CN(C[C@@H](O)[C@H](Cc1ccccc1)NC(=O)O[C@H]1CCOC1)S(=O)(=O)c1ccc(O)cc1` [Compound 175], the Ki turned out to be 0.1 nM.
Consider `COc1ccc(COC(=O)N[C@@H](Cc2ccccc2)[C@H](O)CN(CC2CCCC2)S(=O)(=O)c2ccc(OC)cc2)cc1` [Compound 177], for which the Ki is less than 0.1 nM.
In the case of `COc1ccc(S(=O)(=O)N(CC2CCCC2)C[C@@H](O)[C@H](Cc2ccccc2)NC(=O)OCc2cccc(OC)c2)cc1` [Compound 178], the Ki was determined as 0.1 nM.
As for `COc1ccc(S(=O)(=O)N(CC2CCCC2)C[C@@H](O)[C@H](Cc2ccccc2)NC(=O)OCc2ccccc2OC)cc1` [Compound 179], the figure is 0.4 nM; as for `O=C(N[C@@H](Cc1ccccc1)[C@H](O)CN(CC1CCCC1)S(=O)(=O)c1ccc2c(c1)CCO2)O[C@H]1CCOC1` [Compound 180], less than 0.1 nM; as for `N#Cc1ccc(S(=O)(=O)N(CC2CCCC2)C[C@@H](O)[C@H](Cc2ccccc2)NC(=O)O[C@H]2CCOC2)cc1` [Compound 181], 0.3 nM.
With `O=C(N[C@@H](Cc1ccccc1)[C@H](O)CN(CC1CCCC1)S(=O)(=O)c1ccc(F)cc1)O[C@H]1CCOC1` [Compound 182, N-Cyclopentylmethyl-4-fluoro-N-((2 syn,3S)-2-hydroxy-4-phenyl-3-((S)-tetrahydrofuran-3-yloxycarbonylamino)-butyl)-benzenesulfonamide], the Ki was determined as 0.2 nM.
Take `O=C(N[C@@H](Cc1ccccc1)[C@H](O)CN(CC1CCCC1)S(=O)(=O)c1ccc(Cl)c(Cl)c1)O[C@H]1CCOC1` [Compound 183, 3,4-Dichloro-N-cyclopentylmethyl-N-((2 syn,3S)-2-hydroxy-4-phenyl-3-((S)-tetrahydrofuran-3-yloxycarbonylamino)-butyl)-benzenesulfonamide]: the Ki was 0.1 nM.
